The values below come from ChEMBL document CHEMBL1145234, “A new synthetic analogue of thymidine, 7-(3-bromo-phenoxy)-thymidine, inhibits the proliferation of tumor cells” (Bioorg Med Chem Lett, 2005).

The subject of the first assay is HeLa. Put plainly: Inhibitory concentration against HeLa cell proliferation after 72 hours of incubation. Type of assay: functional, cell-based. To be noted: Homo sapiens.
As a reminder, the IC50 is the midpoint of a concentration-inhibition curve. A low value points to greater potency in that assay. The molecule `O=c1[nH]c(=O)n([C@H]2C[C@H](O)[C@@H](CO)O2)cc1COc1ccc(Br)cc1` came in with an IC50 of 25 µM.

Regarding `CCOc1ccc(OCc2cn([C@H]3C[C@H](O)[C@@H](CO)O3)c(=O)[nH]c2=O)cc1`, it took 250 µM to reach half-maximal inhibition (IC50).

With `O=c1[nH]c(=O)n([C@H]2C[C@H](O)[C@@H](CO)O2)cc1COc1ccccc1`, half-maximal inhibition (IC50) was put at 200 µM.

`O=c1[nH]c(=O)n([C@H]2C[C@H](O)[C@@H](CO)O2)cc1COc1ccc([N+](=O)[O-])cc1` gave a concentration for half-maximal inhibition (IC50) of 250 µM.

Molecule `O=c1[nH]c(=O)n([C@H]2C[C@H](O)[C@@H](CO)O2)cc1COc1cccc2ccccc12` yielded an IC50 of 50 µM.

With `O=c1[nH]c(=O)n([C@H]2C[C@H](O)[C@@H](CO)O2)cc1CSc1cccc2ccccc12`, the concentration for half-maximal inhibition (IC50) turned out to be 500 µM.

As for `COc1ccc(OCc2cn([C@H]3C[C@H](O)[C@@H](CO)O3)c(=O)[nH]c2=O)cc1`, the IC50 came to 200 µM.

As to `Cc1ccc(OCc2cn([C@H]3C[C@H](O)[C@@H](CO)O3)c(=O)[nH]c2=O)cc1`, the IC50 came to 250 µM.

Regarding `O=c1[nH]c(=O)n([C@H]2C[C@H](O)[C@@H](CO)O2)cc1COc1ccc2ccccc2c1`, the IC50 came out at 50 µM.

`O=c1[nH]c(=O)n([C@H]2C[C@H](O)[C@@H](CO)O2)cc1COc1cccc(Br)c1` returned an IC50 of 15 µM.

`Cc1cn([C@H]2C[C@H](O)[C@@H](CO)O2)c(=O)[nH]c1=O` [DOXRIBTIMINE] yielded an IC50 of 4000 µM.

The subject of the next assay is HeLa. Put plainly: Inhibitory concentration against HeLa cell proliferation after 72 hours of incubation; NA means not active. In kind it is functional, cell-based, Homo sapiens.
Details: not given; call rule not given here
For `O=c1ccn([C@H]2C[C@H](O)[C@@H](CO)O2)c(=O)[nH]1` [DEOXYURIDINE], the IC50 result was “Not Active”.
